Measurements taken from US10500222B2, “Compositions and methods relating to treatment of infection” (Wayne State University, priority 2015, dated 2019).
In brackets after ≈: the same amount, converted by molar mass.

How the values were obtained:
P. aeruginosa KEI 1025 = test: Bacterial growth and Minimum Inhibitory Concentration (MIC), strain KEI 1025; type: cell-based, Pseudomonas aeruginosa; conditions: for absorbance values of bacterial cultures: vs growth control
[1] = system: protein levels in P. aeruginosa KEI 1025 infected cornea; test: ELISA of corneal proteins, KEI 1025 infection; type: in vivo, C57BL/6 (B6) mice; conditions: vs PBS
Experimental: (§1) The left eyes of B6 mice (n=5/group/time) were injected with 5 μl of 2 μg/μl glycyrrhizin (GLY) (Sigma-Aldrich, St. Louis, Mo.) or PBS (control) subconjunctivally, one day before infection. Similar treatment was done using carbenoxolone (CBX) (Sigma-Aldrich, St. Louis, Mo.). All mice were injected intraperitoneally (IP) at 1 and 3 days p.i. with 100 μl of GLY (2 μg/μl) or CBX (1 μg/μl). PBS served as control for all these experiments. In a separate similar experiment mice were treated one day before infection with GLY subconjunctivally and injected intraperitoneally (i.p.) with GLY plus recombinant (r) HMGB1 (1 μg/100 μl) or GLY plus PBS. IP injections were similarly given at 1 and 3 days p.i. In an additional experiment, KEI 1025 infected B6 mice were treated with 5 μl of 2 μg/μl GLY subconjunctivally at 6 hours p.i. and injected intraperitoneally at 1 and 3 days p.i. with 100 μl of GLY (2 μg/μl).
KEI 1025 or ATCC strain 19660 infected GLY or PBS treated, B6 mice (n=5/group/time) were sacrificed at 3 and 5 days p.i. and normal and infected corneas harvested. To quantify IL-1β and CXCL2 proteins, individual corneas were homogenized in 1 ml of 50 mM potassium phosphate buffer (pH 6.0) containing 0.5% HTAB (hexadecyltrimethylammonium bromide, Sigma). To quantify HMGB1, cathelicidin-related antimicrobial peptide (CRAMP), mouse beta defensin 2 (mBD2) and mouse beta defensin 3 (mBD3) protein levels, individual corneas were homogenized in 500 μl of PBS containing 0.1% Tween 20 (Sigma) and protease inhibitors (Roche, Indianapolis, Ind.). Corneal homogenates were centrifuged at 12,000 g for 10 min. A 50 μl aliquot of each supernatant was assayed in duplicate to quantify IL-1β, CXCL2, HMGB1 and mBD2 proteins. A 100 μl aliquot of CRAMP and mBD3 supernatant was assayed in duplicate to quantify corresponding protein levels. Undiluted supernatant aliquots were used to quantify all proteins except CXCL2 (1:2 dilution) and HMGB1 (1:5 dilution). An HMGB1 ELISA kit was purchased from Chondrex Inc., Redmond, Wash. CRAMP, mBD2 and mBD3 ELISA kits were purchased from MyBioSource, Inc., San Diego, Calif. All other ELISA kits were purchased from R&D Systems, Minneapolis, Minn. Assays were run following the manufacturer's instructions. Sensitivities of the assays were: 2.31 […] (mBD3).

[2] = system: neutrophils in the cornea, P. aeruginosa KEI 1025; test: Myeloperoxidase (MPO) assay, KEI 1025 infection; type: in vivo, C57BL/6 (B6) mice; conditions: pretreatment subconj. + IP, vs PBS
Experimental: as §1
This assay was used to quantitate neutrophils in the cornea of GLY and PBS treated mice (n=5/group/time) infected with KEI 1025 or ATCC strain 19660. Individual corneas were removed at 3 and 5 days p.i. and homogenized in 1.0 ml of 50 mM phosphate buffer (pH 6.0) containing 0.5% HTAB. […] The change in absorbency was monitored at 460 nm for 5 min at 30 sec intervals. The slope of the line was determined for each sample and used to calculate units of MPO/cornea. […]

[3] = system: mRNA levels in P. aeruginosa ATCC strain 19660 infected cornea; test: Real time RT-PCR of cornea, strain 19660 infection; type: in vivo, C57BL/6 (B6) mice; conditions: vs PBS
Experimental: as §1
KEI 1025 or ATCC strain 19660 infected GLY or PBS treated mice were sacrificed at 5 days p.i. and the normal, contralateral (uninfected) and infected cornea was harvested. For each cornea, total RNA was isolated (RNA STAT-60™; Tel-Test, Friendswood, Tex.) according to the manufacturer's instructions. Upon spectrophotometric quantification at 260 nm, 1 μg of each RNA sample was reverse transcribed using Moloney-murine leukemia virus (M-MLV) reverse transcriptase (Invitrogen, Carlsbad, Calif.) to produce a cDNA template for the PCR reaction. cDNA products were diluted 1:25 with diethylpyrocarbonate (DEPC)-treated water. A 2 μl aliquot of diluted cDNA was used for the real-time RT-PCR reaction with Real-Time SYBR® Green/Fluorescein PCR Master Mix (Bio-Rad) and primer concentrations of 10 μM (total 10 μl reaction volume). After a pre-programmed hot start cycle (3 min at 95° C.), the parameters used for PCR amplification were: 15 sec at 95° C. and 60 sec at 60° C. with the cycles repeated 45 times. Optimal conditions for PCR amplification of cDNA were established using routine methods. mRNA levels of HMGB1, RAGE, IL-1β, TLR2, TLR4, CXCL2, TNF-α, NLR family pyrin domain containing 3 (NLRP3), NLR family CARD domain containing 4 (NLRC4), IL-12, TGF-β, IL-10, single Ig IL-1-related receptor (SIGIRR) and interleukin 1 receptor-like 1 (ST2) were tested by real-time RT-PCR (CFX Connect™ Real-Time PCR Detection System; Bio-Rad, Richmond, Calif.). The fold differences in gene expression were calculated after normalization to β-actin and expressed as the relative mRNA concentration+SEM.

[4] = KEI 1025, pretreatment subconj. + IP, 3 days p.i.
[5] = KEI 1025, pretreatment subconj. + IP, 5 days p.i.

With `CC1(C)[C@@H](O[C@H]2O[C@H](C(=O)O)[C@@H](O)[C@H](O)[C@H]2O[C@@H]2O[C@H](C(=O)O)[C@@H](O)[C@H](O)[C@H]2O)CC[C@]2(C)[C@H]3C(=O)C=C4[C@@H]5C[C@@](C)(C(=O)O)CC[C@]5(C)CC[C@@]4(C)[C@]3(C)CC[C@@H]12` [GLY, glycyrrhizin] as the molecule, how does the MIC50 (P. aeruginosa KEI 1025; Pseudomonas aeruginosa, KEI1025, strain KEI 1025, 50% decrease in absorbance at 540 nm, 37° C., 18 h) read?
Its MIC50 is 20 mg/mL (≈ 24.3 mM).

And the MIC90 (P. aeruginosa KEI 1025; Pseudomonas aeruginosa, KEI1025, strain KEI 1025, 90% decrease in absorbance at 540 nm, 37° C., 18 h)?
The MIC90 was 40 mg/mL (≈ 48.6 mM).

What about the “Minimum Inhibitory Concentration 50 (MIC50)” value (P. aeruginosa KEI 1025; non-cytotoxic strains) of the same molecule?
The value was 20 milligrams/milliliter.

What about the “absorbance values of bacterial cultures” value (P. aeruginosa KEI 1025; strain KEI 1025, grown with 20 mg/ml GLY) of the same molecule?
The value was “significantly reduced”.

And the “absorbance values of bacterial cultures” value (P. aeruginosa KEI 1025; strain KEI 1025, grown with 40 mg/ml GLY)?
The value was “significantly reduced”.

And the CXCL2 protein expression [1, 4]?
Its CXCL2 protein expression is “significantly decreased”.

And the HMGB1 protein [1, 4]?
Its HMGB1 protein is “not 3 days p.i”.

What about the IL-1 protein [1, 4] of the same molecule?
Its IL-1 protein is “no different from control values”.

What about the “expression of CRAMP (protein)” value [1, 4] of the same molecule?
Its value is “upregulated the expression of CRAMP significantly”.

And the mBD2 protein [1, 4]?
The mBD2 protein was “significantly upregulated”.

And the mBD3 protein [1, 4]?
The mBD3 protein was “did not differ significantly”.

What about the CXCL2 protein expression [1, 5] of the same molecule?
Its CXCL2 protein expression is “significantly decreased”.

And the HMGB1 protein [1, 5]?
Its HMGB1 protein is “reduced HMGB1 protein significantly”.

And the IL-1 protein [1, 5]?
The IL-1 protein was “significantly decreased”.

And the “expression of CRAMP (protein)” value [1, 5]?
Its value is “no difference between groups”.

And the mBD2 protein [1, 5]?
The mBD2 protein was “significantly upregulated”.

And the mBD3 protein [1, 5]?
The mBD3 protein was “did not differ significantly”.

And the HMGB1 protein ([1]; normal cornea)?
Its HMGB1 protein is “did not differ”.

And the mBD3 protein ([1]; normal cornea)?
The mBD3 protein was “did not differ significantly”.

And the mBD2 protein ([1]; normal, contralateral uninfected eye)?
Its mBD2 protein is “higher”.

And the “expression of CRAMP (protein)” value ([1]; normal, uninfected cornea)?
Its value is “upregulated the expression of CRAMP significantly”.

And the “neutrophils in cornea (MPO assay)” value ([2]; 3 days p.i.)?
The value was “decreased neutrophils”.

What about the “neutrophils in cornea (MPO assay)” value ([2]; 5 days p.i.) of the same molecule?
Its value is “decreased neutrophils”.

And the “mRNA levels of CXCL2” value ([3]; strain 19660, 5 days p.i.)?
The value was “slightly, but not significantly decreased”.

What about the “Relative mRNA levels for HMGB1” value ([3]; strain 19660, infected cornea 5 days p.i.) of the same molecule?
The value was “no different”.

And the “CXCL2 mRNA” value ([3]; strain 19660 experiment, normal cornea)?
The value was “No differences”.

And the “Relative mRNA levels for HMGB1” value ([3]; strain 19660 experiment, uninfected, normal cornea)?
Its value is “no different”.
